# From patent US7648973B2, “2-methylene-1α,25-dihydroxy-19,21-dinorvitamin D3 analogs and uses thereof” (Wisconsin Alumni Research Foundation, priority 2006, dated 2010)
# “Also recorded” adds a separate entry of the source.
# What was measured:
# [1] = molecular target: T1, full-length recombinant rat vitamin D receptor (Rattus norvegicus, UniProt P13053); experiment: Vitamin D receptor binding, competition with [3H]-1,25-(OH)2-D3; details: compared with 1α,25-dihydroxyvitamin D3; FIG. 1
# T1 construct: Full-length recombinant rat receptor was expressed in E. coli BL21(DE3) Codon Plus RIL cells; histidine tag (C); made in house; host or cells: E. coli BL21(DE3) Codon Plus RIL
# T1 sequence (P13053 1-423): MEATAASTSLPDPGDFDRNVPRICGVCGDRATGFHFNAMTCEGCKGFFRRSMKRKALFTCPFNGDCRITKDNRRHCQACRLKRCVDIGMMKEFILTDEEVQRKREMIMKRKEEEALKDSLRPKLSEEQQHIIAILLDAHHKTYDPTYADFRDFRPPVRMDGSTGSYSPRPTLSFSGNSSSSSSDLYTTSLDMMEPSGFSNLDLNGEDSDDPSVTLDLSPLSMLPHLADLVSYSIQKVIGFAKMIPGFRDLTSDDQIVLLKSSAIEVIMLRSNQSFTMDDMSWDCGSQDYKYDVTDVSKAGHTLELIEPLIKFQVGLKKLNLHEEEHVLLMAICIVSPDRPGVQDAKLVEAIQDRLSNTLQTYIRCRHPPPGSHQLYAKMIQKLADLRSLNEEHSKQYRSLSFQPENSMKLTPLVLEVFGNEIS
# Experimental: The first system was a nickel affinity resin that utilizes the C-terminal histidine tag on this protein. The protein that was eluted from this resin was further purified using ion exchange chromatography (S-Sepharose Fast Flow). Aliquots of the purified protein were quick frozen in liquid nitrogen and stored at −80° C. until use. For use in binding assays, the protein was diluted in TEDK50 (50 mM Tris, 1.5 mM EDTA, pH 7.4, 5 mM DTT, 150 mM KCl) with 0.1% Chaps detergent. The receptor protein and ligand concentration was optimized such that no more than 20% of the added radiolabeled ligand was bound to the receptor.
# The following day, 100 mcl of hydroxylapatite slurry (50%) was added to each tube and mixed at 10-minute intervals for 30 minutes. The hydroxylapaptite was collected by centrifugation and then washed three times with Tris-EDTA buffer (50 mM Tris, 1.5 mM EDTA, pH 7.4) containing 0.5% Titron X-100. After the final wash, the pellets were transferred to scintillation vials containing 4 ml of Biosafe II scintillation cocktail, mixed and placed in a scintillation counter. Total binding was determined from the tubes containing only radiolabeled ligand.
# [2] = system: HL-60 cells; experiment: HL-60 differentiation (nitro blue tetrazolium reduction); type: cell-based, human; details: compared with 1α,25-dihydroxyvitamin D3; FIG. 4
# Experimental: The study drugs were dissolved in ethanol and the concentrations determined using UV spectrophotometry. Serial dilutions were prepared so that a range of drug concentrations could be tested without changing the final concentration of ethanol (<0.2%) present in the cell cultures.
# Human promyelocytic leukemia (HL60) cells were grown in RPMI-1640 medium containing 10% fetal bovine serum. The cells were incubated at 37° C. in the presence of 5% CO2.
# HL60 cells were plated at 1.2×10^5 cells/ml. Eighteen hours after plating, cells in duplicate were treated with drug. Four days later, the cells were harvested and a nitro blue tetrazolium reduction assay was performed (Collins et al., 1979; J. Exp. Med. 149:969-974). The percentage of differentiated cells was determined by counting a total of 200 cells and recording the number that contained intracellular black-blue formazan deposits. Verification of differentiation to monocytic cells was determined by measuring phagocytic activity (data not shown).
# [3] = Bone calcium mobilization (serum calcium); type: in vivo, rat; details: at equimolar quantities or even at 27 times the dose of 1α,25-dihydroxyvitamin D3; ip, 4 consecutive days; FIG. 2
# Experimental: (§1) Male, weanling Sprague-Dawley rats were placed on Diet 11 (0.47% Ca) diet+AEK for one week followed by Diet 11 (0.02% Ca)+AEK for 3 weeks. The rats were then switched to a diet containing 0.47% Ca for one week followed by two weeks on a diet containing 0.02% Ca. Dose administration began during the last week on 0.02% calcium diet. Four consecutive ip doses were given approximately 24 hours apart. Twenty-four hours after the last dose, blood was collected from the severed neck and the concentration of serum calcium determined as a measure of bone calcium mobilization. The first 10 cm of the intestine was also collected for intestinal calcium transport analysis using the everted gut sac method. The everted gut sac assay was carried out as previously described by Martin and Deluca, Am. J. Physiol. 216, 1351 (1969); (DeLuca et al., U.S. Pat. No. 4,188,345), which are incorporated by reference as if fully set forth herein. Serum calcium was determined by atomic absorption spectrophotometry using a Perkin Elmer Model 3110 and by diluting the serum in 0.1% lanthanum chloride.
# (§2) The negative control material is prepared by volumetrically measuring ethanol (<5%) and propylene glycol, mixing, and then placing in storage at 2 to 8° C.
# (§3) The solution is mixed and then stored at 2 to 8° C. […]
# [4] = system: 24-hydyroxylase (24Ohase) gene promoter in ROS 17/2.8 (bone) cells; experiment: In vitro transcription assay (luciferase reporter); type: cell-based; details: compared with 1α,25-dihydroxyvitamin D3; FIG. 5
# Experimental: Transcription activity was measured in ROS 17/2.8 (bone) cells that were stably transfected with a 24-hydyroxylase (24Ohase) gene promoter upstream of a luciferase reporter gene (Arbour et al., 1998). Cells were given a range of doses. Sixteen hours after dosing the cells were harvested and luciferase activities were measured using a luminometer. (RLU=relative luciferase units)
# [5] = Intestinal calcium transport (everted gut sac); type: in vivo, rat; details: compared with 1α,25-dihydroxyvitamin D3; ip, 4 consecutive days; FIG. 3
# Experimental: as §1, §2, §3
compound,measurement,setting,value
"C=C1[C@H](O)CC(=C/C=C2\CCC[C@]3(C)[C@@H](CCCCC(C)(C)O)CC[C@@H]23)C[C@H]1O [TP-62, 2-methylene-1α,25-dihydroxy-19,21-dinorvitamin D3]",binding to the recombinant vitamin D receptor,[1],"comparably active when compared to 1α,25-dihydroxyvitamin D3; also recorded: relatively high binding"
same,differentiation of HL-60 cells,[2],"more active than 1α,25-dihydroxyvitamin D3"
same,bone calcium mobilization,[3],"lesser activity than 1α,25-dihydroxyvitamin D3; also recorded: lesser ability to mobilize calcium from bone"
same,stimulating transcription of a reporter gene stably transfected in Ros17/2.8 (bone) cells,[4],"equally active as 1α,25-dihydroxyvitamin D3"
same,intestinal calcium transport activity,[5],"greater or at least equal to 1α,25-dihydroxyvitamin D3"
